{
  "source": "patent US20110136728A1",
  "about": "“METHODS OF INCREASING BONE FORMATION USING LEPTIN-RELATED PEPTIDES” (priority 2009, published 2011)",
  "key": {"[1]": {"tested_on": "male C57BL/6J wild type mice", "assay": "Oral delivery (gavage) in ad libitum fed wild type mice: body weight, food and water intake, serum glucose, serum osteocalcin", "assay_type": "in vivo, mouse", "procedure": "Six week-old male C57BL/6J wild type and ob/ob mice were obtained from Jackson Laboratories (Bar Harbor, Me., USA). The animals were housed individually polycarbonate cages fitted with stainless steel wire lids and air filters, and supported on ventilated racks (Thoren Caging Systems, Hazelton, Pa., USA) in the Albany Medical College Animal Resources Facility. The mice were maintained at a constant temperature (24° C.) with lights on from 07:00 to 19:00, and allowed food and water ad libitum for 6 days following arrival. During the test period, mice were fed ad libitum or calorie restricted to 60% of normal. Water intake was allowed ad libitum.\nOn day 1 of the study, and on each day thereafter, a water bottle containing 200 ml of water was added to each cage between 09:00 and 10:00 h. Mice fed ad libitum were given 200 g of pelleted rodent diet (Prolab Rat, Mouse, Hamster 3000, St. Louis, Mo.; 22% crude protein, 5% crude fat, 5% fiber, 6% ash, 2.5% additional minerals) between 09:00 and 10:00 h each day. The mice were weighed once daily between 09:00 and 10:00 h on an Acculab V-333 electronic balance (Cole-Parmer, Vernon Hills, Ill., USA). Calorie-restricted wild type and ob/ob mice received 60% of normal daily intake. Twenty four hours later, food and water remaining in the cages was measured to the nearest 0.1 g and 0.1 ml, respectively. To assure fasting glucose levels on days in which blood glucose was measured, food was removed from the cages between 09:00 and 10:00 h, and replaced immediately before the beginning of the dark cycle.\nMouse [D-Leu-4]OB3 was prepared commercially as a C-terminal amide by Bachem (Torrance, Calif., USA). The peptide was dissolved in 0.3% Intravail A3® (Aegis Therapeutics, San Diego, Calif. USA) reconstituted in water, and administered by gavage once daily for 10 days at a concentration of 1 mg/200 μl immediately before the start of the dark cycle. Is has previously been shown that this is the optimum concentration of mouse [D-Leu-4]-OB3 and its related bioactive peptide amides, for regulating energy expenditure, glucose levels, and insulin sensitivity in two genetically obese mouse models (see Rozhayskaya-Arena M. et al., Endocrinology 141:2501-2517 (2000); Grasso P. et al. Regulatory Pep. 101:123-129 (2001); Grasso P. et al., Diabetes 48:2204-2209 (1999), Grasso P. et al., Endocrinology 138:1413-1418 (1997); Grasso P. et al., Regulatory Peptides 85:93-100 (1999); and Grasso P. et al., Diabetes 48:2204-2209 (1999)). Vehicle injected control mice received 200 ul of Intravail A3® only.\nInitial blood samples were drawn by snipping the end of the tail of each mouse at the beginning of the study (day 0); subsequent samples were obtained by gently removing the scab. Blood was taken 1 h before the onset of the dark period at the beginning of the study, and after 2, 4, 6, 8, and 10 days of treatment. The blood was applied to a test strip, and glucose levels were measured with a Glucometer Elite glucose meter (Bayer, Elkhart, Ind., USA).\nAt the end of the study, the mice were anesthetized with isoflurane (5%) and exsanguinated by cardiac puncture. Euthanasia was confirmed by cervical dislocation. The blood was collected in sterile nonheparinized plastic centrifuge tubes and allowed to stand at room temperature for 1 h. The clotted blood was rimmed from the walls of the tubes with sterile wooden applicator sticks. Individual serum samples were prepared by centrifugation for 30 min at 2600×g in an Eppendorf 5702R, A-4-38 rotor (Eppendorf North America, Westbury, N.Y., USA). The serum samples in each experimental group (n=6) were pooled and stored frozen until assayed for osteocalcin content.\nSerum osteocalcin in the pooled samples was assayed in triplicate with a mouse osteocalcin ELISA kit obtained from Biomedical Technologies, Inc. (Stoughton, Mass., USA) according to the instructions supplied by the manufacturer. […]"}, "[2]": {"tested_on": "male C57BLK/6-m db/db mice", "assay": "Intranasal delivery in db/db mice: body weight, food and water intake, serum glucose, insulin, osteocalcin", "assay_type": "in vivo, mouse", "procedure": "Each bar and vertical line represents mean±SEM serum glucose level (n=6).\nFIG. 17. Effects of intranasal administration of mouse [D-Leu-4]-OB3 (1 mg/day, 14 days) on body weight gain in C57BLk/6-m db/db mice. […] Each point represents the mean±standard error of mean change in body weight for a group of six mice.\nIn the present study, the effects of intranasal administration of mouse [D-Leu-4]-OB3 in Intravail® on energy balance, serum osteocalcin, and serum insulin levels in genetically obese male C57BLK/6-m db/db mice allowed food and water ad libitum were examined. […] (See FIGS. 12 and 13). […] (See FIGS. 14 and 15).\nIn the present study, the effects of intranasal delivery of mouse [D-Leu-4]-OB3 in Intravail® on energy balance, glucose regulation, insulin secretion, and serum levels of osteocalcin, a specific and sensitive marker of bone formation were examined Genetically obese C57BLK/6-m db/db mice were allowed food and water ad libitum, and given either Intravail® alone or mouse [D-Leu-4]-OB3 in Intravail® for 14 days. […] Serum insulin levels in db/db mice given mouse [D-Leu-4]-OB3 were approximately 3-fold lower than those in mice receiving Intravail® alone. Mouse [D-Leu-4]-OB3 elevated serum osteocalcin in db/db mice by 28.7% over Intravail® treated control mice. […] In addition, its effects on bone turnover may also be useful in the prevention and/or reversal of at least some of the bone loss which accompanies osteoporosis, anorexia nervosa, cancer, and other wasting diseases not associated with the obesity syndrome."}, "[3]": {"details": "1 mg/day, 10 days, gavage in Intravail"}, "[4]": {"details": "1 mg/day, 14 days, intranasal in Intravail"}},
  "note": "Values joined by “and” are separate entries in the source; they are usually repeats but may differ in a detail not shown here. Equal values may be shown once. “Also recorded” adds a separate entry of the source. Non-standard residues stand in square brackets, D forms with d. Residues, ends and D or L forms follow the SMILES beside them.",
  "data": [
    {"smiles": "CC(C)C[C@@H](NC(=O)[C@H](CO)NC(=O)[C@H](CS)NC(=O)[C@@H](N)CO)C(=O)N1CCC[C@H]1C(=O)N[C@@H](CCC(N)=O)C(=O)N[C@H](C(N)=O)[C@@H](C)O", "note": "[mouse [D-Leu-4]-OB3] (H-SCS[dL]PQT-NH2; N-terminus assumed)", "values": [
      {"measurement": "Body weight (% of initial)", "setting": "[1]; [3]", "result": "95.6 ± 0.5 % of initial"},
      {"measurement": "Final body weight", "setting": "[1]; [3]", "result": "21.6 ± 0.7", "unit": "g"},
      {"measurement": "Serum osteocalcin", "setting": "[1]; [3]", "result": "246.6 ± 6.0", "unit": "ng/mL"},
      {"measurement": "daily food intake compared to Intravail treated controls", "setting": "[1]; 10 days gavage", "result": "not associated with any significant difference in daily food intake"},
      {"measurement": "serum glucose after treatment", "setting": "[1]; 10 days gavage", "result": "significantly (P<0.001) reduced"},
      {"measurement": "serum osteocalcin levels compared to Intravail treated controls", "setting": "[1]; 10 days gavage", "result": "essentially the same; also recorded: slightly elevated"},
      {"measurement": "water intake compared to Intravail treated controls", "setting": "[1]; 10 days gavage", "result": "essentially the same; also recorded: no significant difference in water intake"},
      {"measurement": "loss of initial body weight", "setting": "[1]; after 10 days gavage", "result": 4.4, "unit": "%"},
      {"measurement": "Final serum glucose", "setting": "[1]; after 10 days, 1 mg/day gavage in Intravail", "result": "124.5 ± 24.6", "unit": "mg/dL"},
      {"measurement": "Initial serum glucose", "setting": "[1]; day 0", "result": "173.3 ± 7.3", "unit": "mg/dL"},
      {"measurement": "Initial body weight", "setting": "[1]; day 0, 1 mg/day, 10 days, gavage in Intravail", "result": "22.6 ± 0.8", "unit": "g"},
      {"measurement": "reduction of body weight gain", "setting": "[1]; oral delivery", "result": 4.4, "unit": "%"},
      {"measurement": "reduction of food intake", "setting": "[1]; oral delivery", "result": 6.8, "unit": "%"},
      {"measurement": "reduction of serum glucose", "setting": "[1]; oral delivery", "result": 28.2, "unit": "%"},
      {"measurement": "Body weight (% of initial)", "setting": "[2]; [4]", "result": "104.9 ± 1.4 % of initial"},
      {"measurement": "Final body weight", "setting": "[2]; [4]", "result": "37.0 ± 1.7", "unit": "g"},
      {"measurement": "Food intake", "setting": "[2]; [4]", "result": "6.1 g/mouse/day and 6.1 ± 0.3 g/mouse/day"},
      {"measurement": "Serum insulin", "setting": "[2]; [4]", "result": "0.95 ng/mL and 0.95 ± 0.03 ng/mL"},
      {"measurement": "Serum osteocalcin", "setting": "[2]; [4]", "result": "470 ng/mL and 470.0 ± 20.0 ng/mL"},
      {"measurement": "Water intake", "setting": "[2]; [4]", "result": "21.2 ml/mouse/day and 21.2 ± 1.8 ml/mouse/day"},
      {"measurement": "reduction of serum glucose", "setting": "[2]; 14 days intranasal in Intravail", "result": 61.9, "unit": "%"},
      {"measurement": "body weight increase over initial body weight (heavier)", "setting": "[2]; after 14 days intranasal in Intravail", "result": 4.9, "unit": "%"},
      {"measurement": "Initial serum glucose", "setting": "[2]; day 0", "result": "472 ± 7.3", "unit": "mg/dL"},
      {"measurement": "Initial body weight", "setting": "[2]; day 0, 1 mg/day, 14 days, intranasal in Intravail", "result": "35.0 ± 1.1", "unit": "g"},
      {"measurement": "Final serum glucose", "setting": "[2]; day 14, 1 mg/day intranasal in Intravail", "result": "209 ± 89.4", "unit": "mg/dL"}
    ]}
  ]
}
